Measured values taken from the supplement of paper PMC10307832.

What was measured:
Experiment in all cases: relative viability (nuclei count vs DMSO), 5 days (fraction); higher = more cells survive
[1] = compound: C[C@@H](N)c1ccc(C(=O)Nc2ccnc3[nH]ccc23)cc1 + Cc1nc(Nc2ncc(C(=O)Nc3c(C)cccc3Cl)s2)cc(N2CCN(CCO)CC2)n1 [Dasatinib] (partner 0.075 µM)
Procedure, shortened: (§1)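 Relative viability is defined as nuclei in treated wells over nuclei in vehicle wells. Duplicate plates were run and medians reported. Lung cancer cell lines in 1536-well plates were dosed by pin tool one day after seeding, with one drug or with a fixed anchor-drug dose plus five library-drug doses (not always all listed) in √10 steps, and nuclei were counted after 5 days.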

[2] = compound: C[C@@H](N)c1ccc(C(=O)Nc2ccnc3[nH]ccc23)cc1 + Cc1nc(NC(=O)N2CCC[C@H]2C(N)=O)sc1-c1ccnc(C(C)(C)C(F)(F)F)c1 [Alpelisib] (partner 2 µM)
Procedure, shortened: as §1

[3] = compound: C1CNCCC1C2=CC(=NN2)C3=CC=NC=C3 + C[C@]1(O)C[C@@H](c2nc(-c3ccc4ccc(-c5ccccc5)nc4c3)c3c(N)nccn32)C1 [Linsitinib] (partner 1 µM)
Procedure, shortened: as §1

[4] = compound: C1CNCCC1C2=CC(=NN2)C3=CC=NC=C3 + O=C(c1cc(Cc2n[nH]c(=O)c3ccccc23)ccc1F)N1CCN(C(=O)C2CC2)CC1 [Olaparib] (partner 8 µM)
Procedure, shortened: as §1

Cell Line | relative viability ([1]; first compound 0.04 µM) | relative viability ([1]; first compound 0.1265 µM) | relative viability ([1]; first compound 0.4 µM) | relative viability ([1]; first compound 1.265 µM) | relative viability ([1]; first compound 4 µM) | relative viability ([2]; first compound 0.04 µM) | relative viability ([2]; first compound 0.1265 µM) | relative viability ([2]; first compound 0.4 µM) | relative viability ([2]; first compound 1.265 µM) | relative viability ([2]; first compound 4 µM) | relative viability ([3]; first compound 0.08 µM) | relative viability ([3]; first compound 0.8 µM) | relative viability ([3]; first compound 2.53 µM) | relative viability ([3]; first compound 8 µM) | relative viability ([4]; first compound 0.08 µM) | relative viability ([4]; first compound 0.8 µM) | relative viability ([4]; first compound 2.53 µM) | relative viability ([4]; first compound 8 µM)
SK-LU-1 | 0.132 | 0.138 | 0.136 | 0.109 | 0.121 | 1.03 | 0.973 | 0.986 | 0.888 | 0.704 | 1.05 | 1.07 | 1.19 | 1.23 | 0.437 | 0.425 | 0.467 | 0.439
NCI-H1975 | 0.408 | 0.459 | 0.363 | 0.369 | 0.262 | 0.692 | 0.593 | 0.553 | 0.617 | 0.534 | 0.952 | 1.14 | 0.917 | 0.97 | 0.87 | 0.894 | 0.936 | 0.778
RERF-LC-KJ | 0.871 | 0.911 | 0.88 | 0.778 | 0.709 | 0.899 | 0.939 | 0.809 | 0.945 | 0.851 | 0.925 | 0.931 | 0.903 | 0.903 | 0.849 | 0.873 | 0.945 | 0.954
NCI-H441 | 0.671 | 0.739 | 0.867 |  | 0.667 | 0.715 | 0.602 | 0.641 | 0.669 | 0.919 | 0.65 | 0.361 | 0.753 | 0.497 | 0.422 | 0.673 | 0.57 | 0.567
LCLC-103H | 0.363 | 0.506 | 0.474 | 0.285 | 0.279 | 1.15 | 0.956 | 1.03 | 0.94 | 0.828 | 1.07 | 0.846 | 1.1 | 0.951 | 0.79 | 0.839 | 0.717 | 0.723
HCC-78 | 0.556 | 0.376 | 0.51 | 0.388 | 0.614 | 0.505 | 0.354 | 0.483 | 0.577 | 0.33 | 0.446 |  | 0.513 | 0.61 | 0.821 |  | 0.985 | 0.748
NCI-H1915 | 0.315 | 0.262 | 0.276 |  | 0.308 | 1.12 | 1.06 | 1.06 |  | 0.873 | 1.05 | 1.14 | 1.1 | 1.11 | 0.265 | 0.272 | 0.269 | 0.25
